Results from publication PMC5325326, “Evaluation of the intestinal permeability of rosemary (Rosmarinus officinalis L.) extract polyphenols and terpenoids in Caco-2 cell monolayers” (PLoS ONE, 2017).
“Also recorded” adds a separate entry of the source. Like-named read-outs stand apart in the source and are kept apart here.

Tests used:
Caco-2 cell monolayers [1] = system: Caco-2 cell monolayers; design: method as in printed; settings: reference for BCS permeability class; stated as available, ref not given; cited from earlier work
[2] = BCS classification based on experimental Papp (AB direction, free formulation); format: in vitro ADME; design: dose or concentration left out as unconfirmed; settings: human, Caco-2, pH 7.4, versus metoprolol Papp, Table 2, read-out: Permeability Based on Papp
Text: The Biopharmaceutical Classification System (BCS) was developed by Amidon and coworkers twenty years ago to classify drugs for a waiver of in vivo bioequivalence studies. This system classifies drugs into four categories based on their intestinal permeability and solubility (see S1 Table), and currently this system is accepted worldwide by researchers and governmental institutions such as the FDA and EMA. In addition to its regulatory use, BCS is a tool for drug development because it helps identify the limiting factors in the absorption process. In this work, the 24 compounds identified from RE were classified individually according to this system to obtain relevant information regarding their absorbed oral fraction. For this purpose, only data derived from the free extract permeation were used.
Log P values were obtained for all compounds using ChemDraw software® Ultra version 8.0 (CambridgeSoft Corp. USA) and are shown in Table 2. The Log P value is a widely accepted parameter to express the lipophilicities of biological drugs in medicinal and agro chemistry. According to BCS, compounds are divided into high permeability (Class I: high permeability, high solubility; Class II: high permeability, low solubility) or low permeability (Class III: low permeability, high solubility; Class IV: low permeability, low solubility) categories by comparing with the Log P value (2.18) of the standard metoprolol, which is the reference compound employed for this purpose. Based on this parameter, the permeabilities of all compounds derived from RE were tabulated as high or low (Table 2). Moreover, the Papp value of this reference drug (0.6 x 10^−4 cm/s) was also available, which allowed us to establish another classification for the permeabilities of RE compounds based on this parameter, using the Papp values of the compounds obtained in the AB direction only for the free formulations (Table 2). Therefore, the Log P and Papp values were used in Table 2 to classify compounds as […] drugs for permeability, providing two different classifications based on the partition coefficient and the intestinal permeability.
As no information was available regarding the maximum doses of these compounds, two putative scenarios were selected to simulate a high-activity drug, dosed as a 10-mg tablet, or a low-activity drug, dosed as a 100-mg tablet. […] In the present study, all compounds were classified for BCS by considering the experimental data for absorption (Papp) and the calculated Log P value (Table 2). According to the Log P value, most compounds belong to the high-permeability classes (I and II), with class II being the most numerous (Fig 2A), except in the case of the flavonoids. However, when experimental Papp values were used for classification, the results changed dramatically, and low-permeability classes (III and IV) became the most abundant (Fig 2B). This classification was nearly independent of the solubility scenario and considered dose (compare Fig 2 and S1 Fig). […] Most flavones in RE were classified as class III (low permeability, high solubility) and class IV (low permeability, low solubility) with the exception of apigenin, for which no experimental Papp could be determined and, consequently, no BCS classification was proposed. […] The phenylpropanoid derivatives shogaol and shogaol isomer (gingerol-like compounds) were classified as class II (high permeability, low solubility), which is in agreement with the presence of a long saturated carbon chain in their structure that confers a certain degree of hydrophobicity to these compounds.

[3] = Caco-2 monolayer transport study (apparent permeability, Papp) of rosemary extract compounds; settings: human, Caco-2, pH 7.4
Caco-2 cell monolayers [4] = assay: as above; settings: for Papp, Encapsulated RE, AB direction: liposomal RE formulation; for Papp, Encapsulated RE, AB direction / Papp, Non encapsulated RE, AB direction: apical to basolateral; for retention by Caco-2 cells: free formulation, AB direction
Caco-2 cell monolayers [5] = system: Caco-2 cell monolayers
in vitro = settings: human, Caco-2, pH 7.4
[6] = 120 min, 37°C, mean of six replicates
[7] = free RE 200 μg/mL, 120 min, 37°C, mean of six replicates

| Compound | Papp at 120 min [2] [×10⁻⁶ cm/s] | Papp A→B at 120 min, 200 μg/mL [3] [×10⁻⁶ cm/s] | Papp B→A at 120 min, 200 μg/mL [3] [×10⁻⁶ cm/s] | also measured |
| --- | --- | --- | --- | --- |
| COCCc1ccc(OCC(O)CNC(C)C)cc1 (centres unmarked) [metoprolol] | – | – | – | Papp value of the reference drug (Caco-2 cell monolayers [1]): 6e-05 cm/s |
| CC(C)c1cc2c(c(O)c1O)[C@@]13CCCC(C)(C)[C@@H]1[C@H](OC3=O)[C@H]2O [Rosmanol] | < 60 | 45.9 | 44.2 | Papp A→B at 120 min [3]: 29.1 ×10⁻⁶ cm/s; Papp B→A at 120 min [3]: 33.3 ×10⁻⁶ cm/s |
| C=C(C)[C@@H]1CC[C@]2(C(=O)O)CC[C@]3(C)[C@H](CC[C@@H]4[C@@]5(C)CC[C@H](O)[C@@](C)(CO)[C@@H]5CC[C@]43C)[C@@H]12 [Anemosapogenin] | < 60 | 3.27 | 6.17 | – |
| Cc1cc2c(cc(O)c1=O)[C@@]13CCCC(C)(C)[C@@H]1C[C@@H]2OC3 [Miltipolone] | < 60 | 17.6 | – | Papp B→A at 120 min [3]: 0.168 ×10⁻⁶ cm/s; Papp, Non encapsulated RE, BA direction (Caco-2 cell monolayers [4]; free RE 200 μg/mL, basolateral to apical, 120 min, 37°C, mean of six replicates): not absorbed; also recorded: no absorption; Papp, Encapsulated RE, AB direction (Caco-2 cell monolayers [4]; [6]): no absorption |
| COc1cc2oc(-c3ccc(O)cc3)cc(=O)c2c(O)c1OC [Cirsimaritin] | < 60 | 33.3 | 30.7 | – |
| COc1cc(O)c2c(=O)cc(-c3ccc(O)cc3)oc2c1 [Genkwanin] | < 60 | 14.9 | 16.2 | – |
| COc1c(C(C)C)cc2c(c1O)[C@@]1(C(=O)O)CCCC(C)(C)[C@@H]1CC2 [12-Methoxycarnosic acid] | < 60 | 18.5 | 27.7 | Papp, Encapsulated RE, AB direction (Caco-2 cell monolayers [4]; [6]): no absorption |
| CC(C)c1cc(C=O)c2c(c1O)OC(=O)[C@@]21CCCC(C)(C)[C@@H]1C=O [Rosmadial] | < 60 | 19 | 15.9 | Papp A→B at 120 min [3]: 2.67 ×10⁻⁶ cm/s; Papp B→A at 120 min [3]: 12.4 ×10⁻⁶ cm/s |
| C=C(C)[C@@H]1CC[C@]2(C(=O)O)CC[C@]3(C)[C@H](CC[C@@H]4[C@@]5(C)CC[C@H](O)C(C)(C)[C@@H]5CC[C@]43C)[C@@H]12 [Betulinic acid] | – | – | 6.3 | detection in donor chamber, cells and receptor chamber (Caco-2 cell monolayers [4]; encapsulated formulation): detected both in the donor chamber and also inside the cells but was not detected in the receptor chamber; Papp, Non encapsulated RE, AB direction (Caco-2 cell monolayers [4]; [7]): not absorbed; retention by Caco-2 cells (Caco-2 cell monolayers [4]): partly retained by the Caco-2 cells |
| CC(C)c1cc2c(c(O)c1O)C13CCCC(C)(C)C1C(OC3=O)C2O (centres unmarked) [Epirosmanol] | < 60 | 55.1 | 12.1 | Papp A→B at 120 min [3]: 1.92 ×10⁻⁶ cm/s; Papp B→A at 120 min [3]: 2.63 ×10⁻⁶ cm/s |
| C=C1CCC2(C(=O)O)CCC3(C)C(=CCC4C5(C)CCC(O)C(C)(C)C5CCC43C)C2C1C (centres unmarked) [Micromeric acid] | < 60 | 7.2 | 2.45 | – |
| CC(C)c1cc2c(c(O)c1O)C(=O)C1CCCC(C)(C)C1CC2 (centres unmarked) [Rosmaridiphenol] | < 60 | 2.43 | 2.68 | Papp, Non encapsulated RE, AB direction (Caco-2 cell monolayers [4]; [7]): E-06 range; Papp, Encapsulated RE, AB direction (Caco-2 cell monolayers [4]; [6]): no absorption |
| COc1ccc(-c2cc(=O)c3c(O)cc(O)cc3o2)cc1O [Diosmetin] | < 60 | 2.5 | 4.13 | – |
| CC1CCC2(C(=O)O)CCC3(C)C(=CCC4C5(C)CCC(O)C(C)(C)C5CCC43C)C2C1(C)O (centres unmarked) [Benthamic acid] | < 60 | 5.2 | 7.03 | – |
| COc1c(O)cc2oc(-c3ccc(O)cc3)cc(=O)c2c1O [Hispidulin] | < 60 | 9.05 | 13.1 | – |
| CC(C)c1cc2c(c(O)c1O)[C@@]13CCCC(C)(C)[C@@H]1[C@H](O)[C@@H]2OC3=O [Epiisorosmanol] | > 60 | 104 | 9.23 | Papp A→B at 120 min [3]: 8.18 ×10⁻⁶ cm/s; Papp B→A at 120 min [3]: 13 ×10⁻⁶ cm/s |
| CC(C)c1cc2c(cc1O)[C@@]1(C)CCC(=O)C(C)(C)[C@@H]1CC2 [Hinokione] | – | – | – | Papp, Encapsulated RE, AB direction (Caco-2 cell monolayers [5]): no absorption; Papp, Non encapsulated RE, AB direction (Caco-2 cell monolayers [5]): no absorption; Papp B→A at 120 min, 200 μg/mL (in vitro): 13.6 ×10⁻⁶ cm/s |
| (9)-Shogaol [[9]-Shogaol] | – | – | – | retention by Caco-2 cells / transport to the receptor chamber (Caco-2 cell monolayers [4]; all samples, amounts below LOQ detected in cytoplasmic fractions): partly retained by Caco-2 cells without any transport to the receptor chamber |
| CC(C)c1cc2c(c(O)c1O)[C@@]1(C(=O)O)CCCC(C)(C)[C@@H]1CC2 [Carnosic acid] | – | 127 | 90.4 | Papp, Encapsulated RE, AB direction (Caco-2 cell monolayers [4]; [6]): no absorption |
| C[C@H]1[C@H](C)CC[C@]2(C(=O)O)CC[C@]3(C)C(=CC[C@@H]4[C@@]5(C)CC[C@H](O)C(C)(C)[C@@H]5CC[C@]43C)[C@H]12 [Ursolic acid] | – | – | 7.2 | retention by Caco-2 cells (Caco-2 cell monolayers [4]): partly retained by the Caco-2 cells |
| CC(C)c1cc2c(c(O)c1O)[C@@]13CCCC(C)(C)[C@@H]1C[C@@H]2OC3=O [Carnosol] | < 60 | 14.6 | 13.5 | Papp A→B at 120 min [3]: 0.0403 ×10⁻⁶ cm/s; Papp B→A at 120 min [3]: 0.261 ×10⁻⁶ cm/s |
| CC1(C)CC[C@]2(C(=O)O)CC[C@]3(C)C(=CC[C@@H]4[C@@]5(C)C[C@H](O)[C@H](O)C(C)(C)[C@@H]5CC[C@]43C)[C@@H]2C1 [Augustic acid] | < 60 | 7.35 | 7.93 | – |
